Series [1] is described as follows: Quenching of free MR121 fluorescence by cyclic nucleotides and cAMP derivates (Stern-Volmer plot). It is filed as binding. The conditions noted are these: for association constant, Ks, with MR121 / quenching of MR121 (decrease of fluorescence intensity, fluorescence lifetime): 20 nM MR121 in PBS, 30 min RT; for association constant, Ks, with MR121: calculated from linear region (up to 3.2 mM) of I0/I plot; for quenching of MR121 (decrease of fluorescence intensity, fluorescence lifetime): quencher 0-12.8 mM; for quenching of MR121 in low concentrations: concentrations up to 10 μM (range of cellular concentrations). The protocol:
The fluorescent intensity was adjusted to about 60% of the maximal signal of the employed iCCD camera by using attenuation filters and varying exposure times.
(§1) Fluorescence and lifetime were measured after an incubation time of 30 minutes at RT.
In order to analyze the quenching mechanism, measurements of fluorescence intensity and fluorescence lifetime of free MR121 as a function of different molecules (Trp, cAMP, 2-AHA-cAMP, 8-AHA-cAMP, 8-ADOA-cAMP, 2′-AEC-cAMP, N-6-Aminohexyl-cAMP, 8-MBT-cAMP and 8-OH-cAMP, see FIG. 4, 5) were carried out.
as §1
In FIG. 5 the change in fluorescence intensity (I0/I) is plotted for all cAMP derivatives investigated.

A short description of series [2]: Quenching of ATTO590 by 8-AHA-cAMP (Stern-Vollmer plot). In kind it is binding. The settings on record: 20 nM ATTO590 in PBS, 30 min RT; linear region (up to 3.2 mM). The protocol:
(§2) All fluorescence intensity measurements were carried out by means of a plate:vision fluorescence reader (Evotec Technologies GmbH, Schnackenburgallee 114, D-22525 Hamburg, Germany) equipped with a high pressure Xe arc lamp using for the measurements with MR121 an excitation filter at 630 nm (bandwidth 50 nm) and an emission filter at 695 nm (bandwidth 55 nm) and for the measurements with Atto 700 an excitation filter at 655 nm (bandwidth 50 nm) and an emission filter at 710 nm (bandwidth 40 nm). The fluorescent intensity was adjusted to about 60% of the maximal signal of the employed iCCD camera by using attenuation filters and varying exposure times. The lifetime measurements were performed by means of a plate:vision TRF reader (Evotec Technologies GmbH, Schnackenburgallee 114, D-22525 Hamburg, Germany) with an OPO system as light source (GWU Lasertechnik Vertriebsgesellschaft m.b.H., 50374 Erftstadt, Germany) tuned to 630 nm for excitation and the emission filter at 695 nm.
(§3) 20 μl ATTO590 and ATTO655 respectively (in PBS, end concentration 20 nM) and 20 μl quencher (8-AHA-cAMP) in PBS (DMSO end concentration in the assay: 1.25%) were pipetted into a microtiter plate. Fluorescence and lifetime were measured after an incubation time of 30 minutes at RT. […] The association constant, Ks, was calculated from the linear region (up to 3.2 mM) of the plot.

Series [3] can be described thus: Quenching of ATTO655 by 8-AHA-cAMP (Stern-Vollmer plot). In kind it is binding. The settings on record: 20 nM ATTO655 in PBS, 30 min RT; linear region (up to 3.2 mM). As for the experimental part: as §2, §3
Series [4] is described as follows: Solubility seen in the quenching plot (FIG. 5). In kind it is physicochemical. The settings on record: above ˜5 mM, PBS, deviation from linearity of I0/I plot. An excerpt: I0/I: change in fluorescence intensity
For another series, the target named is anti-cAMP antibody. In words: cAMP/cGMP standard curves: displacement of tracer from anti-cAMP antibody, fluorescence readout. It is filed as binding, mouse.
The test system of the next series is CHO-K1 cells. Put plainly: cAMP cellular assay, forskolin dose response curve. In kind it is cell-based. The conditions noted are these: Cricetulus griseus, 0.5 h; CHO-K1, 10,000 cells/well, 1 mM IBMX, 30 min at 37° C. As for the experimental part:
Cell numbers from 2, 500 to 20, 000 cell/well were plated in 25 μl medium and incubated for 20 h at 37° C. The medium was removed and after adding 10 μl of PBS with 0.1% BSA and 1 mM IBMX the cells were incubated for 60 minutes at 37° C. 10 μl of forskolin dilutions in PBS+0.1% BSA+1 mM IBMX from 0.01 to 300 μM (final concentration in 20 μl assay volume) were added and incubated for another 30 minutes at 37° C.

For series [5] the following is noted: literature value for tryptophane; cited from earlier work.
The mark [6] stands for this setting: 20 nM MR121-2-AHA-cAMP tracer, 40 nM antibody, without cells (FIG. 14), read-out: IC50, comparison of standard curves for cAMP and cGMP.

Structures are written as SMILES. “And” between values parts separate entries of the source, which are not always exact repeats. Identical values can stand only once. “Also recorded” adds a separate entry of the source. Like-named read-outs stand apart in the source and are kept apart here. A value given as a limit tells only on which side of the number the result lay.

Consider `NCCCCCCNc1nc(N)c2ncn([C@@H]3O[C@@H]4COP(=O)(O)O[C@H]4[C@H]3O)c2n1` [2-AHA-cAMP, 2-(6-Aminohexyl)amino-cAMP], for which the “association constant, Ks, with MR121” value in series [1] is 512 M⁻¹.
Take `NCCOCCOCCNc1nc2c(N)ncnc2n1[C@@H]1O[C@@H]2COP(=O)(O)O[C@H]2[C@H]1O` [8-ADOA-cAMP, 8-(8-Amino-3,6-dioxaoctylamino)-cAMP]: the “association constant, Ks, with MR121” value in series [1] was 475 M⁻¹.
In the case of `NCCCCCCNc1nc2c(N)ncnc2n1[C@@H]1O[C@@H]2COP(=O)(O)O[C@H]2[C@H]1O` [8-AHA-cAMP, 8-(6-Aminohexyl)amino-cAMP], the “association constant, Ks, with MR121” value in series [1] is 514 M⁻¹. Also, the “association constant, Ks, with Atto590” value in series [2] stood at 282 M⁻¹. Further, the “association constant, Ks, with Atto655” value in series [3] worked out at 347 M⁻¹. Besides, the solubility result in series [4] is reported as “solubility problems”.
`Nc1ncnc2c1nc(SCCCCS)n2[C@@H]1O[C@@H]2COP(=O)(O)O[C@H]2[C@H]1O` [8-MBT-cAMP, 8-(4-Mercaptobutylthio)-cAMP]: the “association constant, Ks, with MR121” value in series [1] is 758 M⁻¹.
Still for that read-out and setting: the figure for `Nc1ncnc2c1[nH]c(=O)n2C1OC2COP(=O)(O)OC2C1O` (stereo not shown) [8-OH-cAMP, 8-Hydroxy-cAMP] is 236 M⁻¹.
For `NCCCCCCNc1ncnc2c1ncn2[C@@H]1O[C@@H]2COP(=O)(O)O[C@H]2[C@H]1O` [N-6-Aminohexyl-cAMP], the “quenching of MR121 (decrease of fluorescence intensity, fluorescence lifetime)” value in series [1] was “no quenching at all”.
Usually IC50 stands for the midpoint of a concentration-inhibition curve. `Nc1ncnc2c1ncn2[C@@H]1O[C@@H]2COP(=O)(O)O[C@H]2[C@H]1O` [cAMP, cyclic adenosine monophosphate]: the “quenching of MR121 (decrease of fluorescence intensity, fluorescence lifetime)” value in series [1] is “no quenching at all”. Besides, in series [1], the “quenching of MR121 in low concentrations” value is on record as “neither cAMP nor cGMP quenches MR121; also recorded: neither cAMP nor cGMP quench the fluorophore”. Moreover, the IC50 is 48 nM on anti-cAMP antibody (5 nM Atto700-2-AHA-cAMP tracer, 5 nM antibody, without cells (FIG. 15), read-out: IC50, dose response curve with Atto700-2-AHA-cAMP tracer); 134 nM on anti-cAMP antibody (setting [6]); 119 nM and 102 nM at anti-cAMP antibody (20 nM MR121-2-AHA-cAMP, 40 nM anti-cAMP antibody, 10'000 CHO-K1 cells/well, read-out: IC50, standard curve with cells); 109 nM on anti-cAMP antibody (20 nM MR121-2-AHA-cAMP, 40 nM anti-cAMP antibody, without cells (FIG. 8), read-out: IC50, standard curve without cells).
In the case of `Nc1nc2c(ncn2[C@@H]2O[C@@H]3COP(=O)(O)O[C@H]3[C@H]2O)c(=O)[nH]1` [cGMP, cyclic GMP], in series [1], the “quenching of MR121 (decrease of fluorescence intensity, fluorescence lifetime)” value was “quenches MR121 at higher concentrations” and the “quenching of MR121 in low concentrations” value is “neither cAMP nor cGMP quenches MR121; also recorded: neither cAMP nor cGMP quench the fluorophore”. Further, the “concentration at which the nucleotide has quenching capabilities” value in series [1] (fluorophore quenching) was at least 1 mM. The IC50 at anti-cAMP antibody (setting [6]) was determined as 387 nM.
Take `C=C[C@@]1(C)CC(=O)[C@]2(O)[C@@]3(C)[C@@H](O)CCC(C)(C)[C@@H]3[C@H](O)[C@H](OC(C)=O)[C@@]2(C)O1` [forskolin]: the IC50 with CHO-K1 cells is 3700 nM.
For the compound `N[C@@H](Cc1c[nH]c2ccccc12)C(=O)O` [tryptophane], the “quenching of MR121 (decrease of fluorescence intensity, fluorescence lifetime)” value in series [1] is “decrease in fluorescence intensity without a change in fluorescence lifetime”. Further, the “association constant Ks with MR121, reported in the literature” value in series [5] was around 220 M⁻¹.

Source of the values: patent US9915650B2, “Method of detection of cAMP and cGMP via a fluorophore and dequencher complex” (HOFFMANN-LA-ROCHE INC., priority 2006, dated 2018).
